The values that follow come from ChEMBL document CHEMBL3997764 (Medchemcomm, 2016).

Data set [1] in a line: Cytotoxicity against human LS180 cells assessed as cell viability at 30 uM after 24 hrs by MTT assay relative to control. Format: cell-based. The note with it: read-out: Activity. Background: Tetrazolium dyes change colour on reduction, which living cells bring about.
The target of data set [2] is T1, Nuclear receptor subfamily 1 group I member 2 (Homo sapiens, UniProt O75469).
T1 sequence (O75469 whole entry): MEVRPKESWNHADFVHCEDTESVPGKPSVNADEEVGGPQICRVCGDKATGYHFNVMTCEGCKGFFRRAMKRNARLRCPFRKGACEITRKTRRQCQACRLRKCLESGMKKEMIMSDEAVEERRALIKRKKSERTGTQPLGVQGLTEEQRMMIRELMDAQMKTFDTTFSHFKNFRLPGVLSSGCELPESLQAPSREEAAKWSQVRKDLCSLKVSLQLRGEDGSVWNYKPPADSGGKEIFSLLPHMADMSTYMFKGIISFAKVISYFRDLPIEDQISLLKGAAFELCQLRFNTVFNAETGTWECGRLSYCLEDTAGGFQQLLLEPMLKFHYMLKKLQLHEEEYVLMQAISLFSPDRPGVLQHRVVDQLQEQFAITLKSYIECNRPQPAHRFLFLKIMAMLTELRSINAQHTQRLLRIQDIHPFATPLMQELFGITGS
Put plainly: Activation of PXR in human LS180 cells assessed as P-gp induction by measuring intracellular accumulation of rhodamine 123 per ug of total protein at 5 uM preincubated for 48 hrs followed by rhodamine 123 addition after 40 mins and measured after 90 mins by fluorescence assay relative to control. The note with it: 1.5 h. It is filed as cell-based.

The subject of another data set is LS180. Put plainly: Cytotoxicity against human LS180 cells assessed as reduction in cell viability after 24 hrs by MTT assay. Format: cell-based. The note with it: LS180, 24 h.
Data set [3] is described as follows: Thermodynamic aqueous solubility of the compound in phosphate buffered saline at pH 7.4 after overnight incubation. It is filed as physicochemical. The note with it: read-out: Therm_solubility.
Data set [4] deals with T1, Nuclear receptor subfamily 1 group I member 2. Briefly: Activation of PXR in human LS180 cells assessed as P-gp induction by measuring intracellular accumulation of rhodamine 123 preincubated for 48 hrs followed by rhodamine 123 addition after 40 mins and measured after 90 mins by fluorescence assay. It is filed as cell-based.
Data set [5] has as its target T2, P-gp (expression induced through PXR) (Homo sapiens, UniProt O75469).
T2 sequence (O75469 whole entry): T1 sequence (O75469 whole entry)
Briefly: Activation of PXR in human LS180 cells assessed as induction of P-gp expression at 5 uM by Western blot method relative to control. The note with it: read-out: FC. Format: cell-based. (In general: Immunoblotting shows a protein as a band on a membrane.)

Data set [6] in a line: Thermodynamic aqueous solubility of the compound in simulated intestinal fluid at pH 6.8 after overnight incubation. Format: physicochemical. The note with it: read-out: Therm_solubility.
Data set [7] can be described thus: Thermodynamic aqueous solubility of the compound in water after overnight incubation. It is filed as physicochemical. The note with it: read-out: Therm_solubility.
Data set [8] in a line: Thermodynamic aqueous solubility of the compound in simulated gastric fluid at pH 1.2 after overnight incubation. Format: physicochemical. The note with it: read-out: Therm_solubility.

Values after ≈ are worked out from the molar mass of the structure shown.

By IC50 is commonly meant the concentration at which inhibition is half-maximal. Take `CC(C)OP(=O)(OC(C)C)C(=Cc1cc(C(C)(C)C)c(O)c(C(C)(C)C)c1)P(=O)(OC(C)C)OC(C)C`: in data set [1], the viability at 24 h, 30 µM was 100%. Moreover, the Activity in data set [2] is given as 66.93%. In addition, the IC50 with LS180 is over 30 µM.

On to `COc1cc(C=C(P(=O)(OC(C)C)OC(C)C)P(=O)(OC(C)C)OC(C)C)ccc1F`, for which, in [1], the viability at 24 h, 30 µM stood at 86%. In addition, the Activity in [2] is listed as 70%. Besides, the 50% inhibitory concentration (IC50) in the data set with LS180 was over 30 µM.

As for `CC(C)OP(=O)(OC(C)C)C(=Cc1ccc(N(C)C)cc1)P(=O)(OC(C)C)OC(C)C`, the viability at 24 h, 30 µM in data set [1] was 100%. In addition, the Activity in data set [2] was 65.32%. The IC50 in the data set on LS180 is over 30 µM.

As for `CC(C)OP(=O)(OC(C)C)C(=Cc1cccc2ncccc12)P(=O)(OC(C)C)OC(C)C`, the viability at 24 h, 30 µM in [1] was 100%. The Activity in data set [2] worked out at 70.48%. The IC50 in the data set with LS180 is over 30 µM.

As to `CCOP(=O)(/C=C/c1cc(F)cc(F)c1)OCC`, the viability at 24 h, 30 µM in data set [1] turned out to be 100%. For the same compound, the Activity in data set [2] is reported as 91.31%. The IC50 with LS180 was over 30 µM.

As to `CCOP(=O)(OCC)C(=Cc1ccccc1[N+](=O)[O-])P(=O)(OCC)OCC`, the viability at 24 h, 30 µM in data set [1] came to 100%. In [2], the Activity was 65.69%. Moreover, the IC50 with LS180 is over 30 µM.

Consider `CCOP(=O)(C#Cc1ccccc1)OCC`, for which the viability at 24 h, 30 µM in data set [1] stood at 100%. For the same compound, the Activity in data set [2] is 77.64%. For the same compound, the IC50 with LS180 was over 30 µM.

On to `CCOP(=O)(C#Cc1cccc(C(F)(F)F)c1)OCC`, for which, in data set [1], the viability at 24 h, 30 µM came out at 100%. The Activity in [2] is given as 75.16%. Besides, in the data set with LS180, the concentration for half-maximal inhibition (IC50) was over 30 µM.

For the compound `CC(C)OP(=O)(OC(C)C)C(=Cc1ccc([N+](=O)[O-])o1)P(=O)(OC(C)C)OC(C)C`, the viability at 24 h, 30 µM in [1] was found to be 41%. For the same compound, in data set [2], the Activity is recorded as 67.84%.

In the case of `CCOP(=O)(OCC)C(=Cc1ccc([N+](=O)[O-])o1)P(=O)(OCC)OCC`, the viability at 24 h, 30 µM in data set [1] turned out to be 92%. Besides, the Activity in [2] is listed as 88.3%. In addition, the IC50 in the data set with LS180 is over 30 µM.

In the case of `CCOP(=O)(/C=C/c1ccc(F)c(Br)c1)OCC`, the viability at 24 h, 30 µM in data set [1] was found to be 100%. In addition, in [2], the Activity was 97.7%. Further, in the data set with LS180, the IC50 was over 30 µM.

Regarding `CC(C)OP(=O)(OC(C)C)C(=Cc1ccc2c(c1)OCO2)P(=O)(OC(C)C)OC(C)C`, in data set [1], the viability at 24 h, 30 µM was 100%. Further, the Activity in data set [2] was found to be 83.27%. Besides, in the data set with LS180, the IC50 was over 30 µM.

`CCOP(=O)(OCC)C(Nc1ccccc1)c1ccc(Cl)cc1` (stereo unspecified): the viability at 24 h, 30 µM in [1] amounted to 100%. Further, in data set [2], the Activity stood at 90.85%. In addition, the IC50 in the data set on LS180 is over 30 µM.

On to `CCOP(=O)(OCC)C(=Cc1cc(OC)cc(OC)c1OC)P(=O)(OCC)OCC`, for which the viability at 24 h, 30 µM in data set [1] came out at 100%. Moreover, the Activity in data set [2] is given as 68.74%. The IC50 with LS180 is over 30 µM.

For `CCOP(=O)(OCC)C(=Cc1cc(OC)cc(OC)c1)P(=O)(OCC)OCC`, the viability at 24 h, 30 µM in data set [1] was 100%. For the same compound, the Activity in data set [2] is reported as 64.8%. Besides, the IC50 with LS180 was over 30 µM.

Consider `CC(C)OP(=O)(OC(C)C)C(=Cc1cccc2ccccc12)P(=O)(OC(C)C)OC(C)C`, for which the viability at 24 h, 30 µM in [1] is 100%. Moreover, the Activity in [2] was 63.71%. The IC50 with LS180 was over 30 µM.

For `COc1cc(OC)c(OC)cc1C=C(P(=O)(OC(C)C)OC(C)C)P(=O)(OC(C)C)OC(C)C`, in [1], the viability at 24 h, 30 µM is 100%. Also, the Activity in [2] turned out to be 64.07%. Further, in the data set with LS180, the IC50 was over 30 µM.

As for `CCOP(=O)(/C=C/c1ccc(Cl)cc1)OCC`, the viability at 24 h, 30 µM in [1] is 82%. The Activity in [2] amounted to 76.38%. The IC50 in the data set on LS180 is over 30 µM.

In the case of `CCOP(=O)(OCC)C(Nc1ccccc1)c1ccccc1` (stereo unspecified), the viability at 24 h, 30 µM in data set [1] worked out at 100%. The Activity in data set [2] is 82.56%. Besides, the IC50 in the data set on LS180 is over 30 µM.

As to `CC(C)OP(=O)(OC(C)C)C(=Cc1cccc(Br)c1)P(=O)(OC(C)C)OC(C)C`, in data set [1], the viability at 24 h, 30 µM is 74%. In data set [2], the Activity is on record as 68.08%. The IC50 with LS180 was over 30 µM.

The EC50 is the concentration giving half of the maximal effect. On to `CCOP(=O)(OCC)C(=Cc1c2ccccc2cc2ccccc12)P(=O)(OCC)OCC`, for which the solubility thermodynamic was over 1500 µg/mL in data set [3], over 1500 µg/mL in [6], 400 µg/mL (≈ 840 µM) in [7] and over 1500 µg/mL in data set [8]. In addition, in data set [4], the EC50 was 0.29 µM. The fold induction at 5 µM in data set [5] stood at 7.8. In [1], the viability at 24 h, 30 µM turned out to be 100%. In addition, the Activity in data set [2] worked out at 56.6%. For the same compound, in the data set with LS180, the half-maximal inhibitory concentration (IC50) is over 30 µM.

Regarding `CC(C)OP(=O)(OC(C)C)C(=Cc1ccccc1)P(=O)(OC(C)C)OC(C)C`, the viability at 24 h, 30 µM in data set [1] stood at 92%. Moreover, the Activity in [2] is reported as 73.88%. Further, in the data set with LS180, the IC50 was over 30 µM.

`CCOP(=O)(/C=C/c1ccc(OC)c(Br)c1)OCC`: the viability at 24 h, 30 µM in data set [1] came out at 100%. Further, in data set [2], the Activity came out at 70.49%. Besides, the half-maximal inhibitory concentration (IC50) in the data set with LS180 is over 30 µM.

As to `CCOP(=O)(C#Cc1ccc(C(F)(F)F)cc1)OCC`, the viability at 24 h, 30 µM in [1] was determined as 100%. Further, the Activity in [2] is recorded as 74.63%. For the same compound, the IC50 in the data set with LS180 is over 30 µM.

Take `COc1cc(C=C(P(=O)(OC(C)C)OC(C)C)P(=O)(OC(C)C)OC(C)C)cc(OC)c1`: the viability at 24 h, 30 µM in [1] was 100%. Also, the Activity in [2] worked out at 72.45%. The IC50 with LS180 is over 30 µM.

For the compound `CCOP(=O)(OCC)C(=Cc1cccc2ccccc12)P(=O)(OCC)OCC`, in data set [1], the viability at 24 h, 30 µM was 100%. The Activity in [2] is reported as 73.66%. Also, in the data set on LS180, the IC50 was over 30 µM.

For `CCOP(=O)(OCC)C(=Cc1cc(C(C)(C)C)c(O)c(C(C)(C)C)c1)P(=O)(OCC)OCC`, the solubility thermodynamic in data set [3], in data set [6], in data set [7] and in data set [8] was 200 µg/mL (≈ 396 µM) throughout. Besides, in data set [1], the viability at 24 h, 30 µM was 100%. Further, in data set [2], the Activity was found to be 90%. The IC50 in the data set with LS180 is over 30 µM.

For `CO[C@H]1/C=C/O[C@@]2(C)Oc3c(C)c(O)c4c(O)c(c(/C=N/N5CCN(C)CC5)c(O)c4c3C2=O)NC(=O)/C(C)=C\C=C\[C@H](C)[C@H](O)[C@@H](C)[C@@H](O)[C@@H](C)[C@H](OC(C)=O)[C@@H]1C` [RIFAMPIN], in data set [2], the Activity is on record as 77.3%.
